US20050042674A9, “Common ligand mimics: thiazolidinediones and rhodanines” (priority 2002, published 2005)
Several values for one entry are separate records, joined by “and”; a condition that tells them apart may be missing. Identical values can stand only once. Like-named read-outs stand apart in the source and are kept apart here.

Legend:
[1] = target: T1, HMG CoA reductase (HMGCoAR) (UniProt P04035); experiment: HMGCoAR kinetic assay, spectrophotometric oxidation of NADPH at 340 nm; type: biochemical; settings: Examples 36/37, FIG. 16/17
T1 sequence (P04035 1-888): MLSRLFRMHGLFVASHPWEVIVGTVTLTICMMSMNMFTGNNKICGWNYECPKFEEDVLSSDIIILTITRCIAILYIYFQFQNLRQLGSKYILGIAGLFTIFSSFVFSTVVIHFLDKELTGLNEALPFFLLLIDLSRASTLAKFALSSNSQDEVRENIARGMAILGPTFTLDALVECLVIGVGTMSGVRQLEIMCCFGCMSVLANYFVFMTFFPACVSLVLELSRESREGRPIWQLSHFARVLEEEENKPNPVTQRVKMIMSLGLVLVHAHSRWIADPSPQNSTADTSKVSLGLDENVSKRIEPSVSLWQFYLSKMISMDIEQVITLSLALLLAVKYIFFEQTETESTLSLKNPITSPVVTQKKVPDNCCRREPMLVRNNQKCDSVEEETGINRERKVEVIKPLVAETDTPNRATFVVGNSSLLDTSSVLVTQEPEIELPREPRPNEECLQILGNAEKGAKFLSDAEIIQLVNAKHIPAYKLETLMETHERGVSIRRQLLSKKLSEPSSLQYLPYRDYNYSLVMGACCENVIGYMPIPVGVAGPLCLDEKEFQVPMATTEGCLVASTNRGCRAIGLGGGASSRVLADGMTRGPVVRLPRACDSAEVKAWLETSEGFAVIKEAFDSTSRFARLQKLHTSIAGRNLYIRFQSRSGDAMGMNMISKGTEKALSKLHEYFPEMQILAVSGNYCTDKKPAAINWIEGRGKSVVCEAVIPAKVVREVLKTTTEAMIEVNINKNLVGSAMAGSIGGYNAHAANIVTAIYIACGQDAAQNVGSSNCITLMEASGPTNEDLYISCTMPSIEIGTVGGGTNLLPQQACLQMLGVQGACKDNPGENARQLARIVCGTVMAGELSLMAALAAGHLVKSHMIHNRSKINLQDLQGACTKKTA
Description: For HMGCoAR analysis, the compounds were screened using a kinetic protocol that spectrophotometrically evaluates oxidation of NADPH.
Stock solutions of each of the reagents were prepared in the following concentrations. Dilutions of the stock solutions were prepared prior to running the assay in the concentrations indicated below. The enzyme was diluted in 1 M NaCl. To prepare the dilution buffer, 10 μl of HMGCoAR (1 mg/ml) was mixed with 133 μl of 3 M NaCl solution and 257 μl of 25 mM KH2PO4 buffer (pH 7.5; containing 50 mM NaCl, μl mM EDTA (ethylenediaminetetraacetic acid), and 5 mM DTT (dithiothreitol).
The HMGCoAR reaction was monitored at 340 nm prior to and after addition of the inhibitor to detect background reaction with the inhibitor. Solutions of 500 nM of the inhibitors in DMSO were prepared to provide a final DMSO concentration of 2% of the total assay volume. […] The reaction was then initiated with 5 μl of HMGCoAR enzyme (1:40 dilution of 0.65 mg/ml). After the enzyme was added, the solution was mixed for 20 seconds, and the reaction was run for 10 minutes. After a 50 second lag, the samples were read in a Cary spectrophotometer at 340 nm. Reading of the samples was continued until 300 seconds. […] The substrate was kept at a level at least 10 times the Km.

[2] = target: glyceraldehyde-3-phosphate dehydrogenase (GAPDH) (Escherichia coli, UniProt P0A9B2); experiment: GAPDH kinetic assay, spectrophotometric reduction of NAD+ at 340 nm; type: biochemical, E. coli; settings: Examples 36/37, FIG. 16/17
Sequence of glyceraldehyde-3-phosphate dehydrogenase (GAPDH) (P0A9B2 whole entry): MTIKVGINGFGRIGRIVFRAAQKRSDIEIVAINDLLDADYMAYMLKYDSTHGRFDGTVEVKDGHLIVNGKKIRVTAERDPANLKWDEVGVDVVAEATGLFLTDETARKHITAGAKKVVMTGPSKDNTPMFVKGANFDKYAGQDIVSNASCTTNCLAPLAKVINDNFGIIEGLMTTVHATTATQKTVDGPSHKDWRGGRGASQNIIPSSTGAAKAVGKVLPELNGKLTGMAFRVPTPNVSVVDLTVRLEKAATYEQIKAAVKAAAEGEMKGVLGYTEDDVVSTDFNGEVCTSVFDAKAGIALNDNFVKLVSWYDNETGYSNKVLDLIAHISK
Description: Reading of the samples was continued until 300 seconds. […] Cuvette #1 contained the control reaction (no inhibitor).
GAP for use in this experiment was deprotected from the diethyl acetal in the following manner. Water was boiled in recrystallizing dish. […] The tube was then immersed, while shaking, in the boiling water for 3 minutes.

[3] = target: dihydrodipicolinate reductase (DHPR) (Escherichia coli, UniProt P04036); experiment: DHPR kinetic assay, spectrophotometric oxidation of NADPH at 340 nm; type: biochemical; settings: Examples 36/37, FIG. 16/17
Sequence of dihydrodipicolinate reductase (DHPR) (P04036 whole entry): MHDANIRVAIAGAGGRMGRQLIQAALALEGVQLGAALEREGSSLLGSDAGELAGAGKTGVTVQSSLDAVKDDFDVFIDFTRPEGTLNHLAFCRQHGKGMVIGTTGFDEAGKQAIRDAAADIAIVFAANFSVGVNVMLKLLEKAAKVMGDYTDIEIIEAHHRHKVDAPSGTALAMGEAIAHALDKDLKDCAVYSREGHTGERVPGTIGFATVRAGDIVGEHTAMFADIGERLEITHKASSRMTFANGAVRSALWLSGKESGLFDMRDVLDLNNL
Description: DHPR was diluted in 10 mM HEPES at a pH of 7.4. DHPS (dihydrodipicolinate synthase) was not diluted and was stored in eppindorf tubes.
The L-ASA (L-aspartate semialdehyde) solution was prepared in the following manner. […] stock solution of ASA was prepared. 100 μl of the ASA stock solution was mixed with 150 μl of concentrated NaHCO3 and 375 μl of H2O. For use in the assay, 28.8 mM L-ASA was equal to 625 μl of the solution. The L-ASA stock solution was kept at a temperature of −20° C. After dilution, the pH of the 28.8 mM solution was checked and maintained between 1 and 2.
The solution for background detection was a 945 μl solution containing 0.1 HEPES (pH 7.8), 1 mM pyruvate, 6 μM NADPH, 40 μM L-ASA, and 7 μl of 1 mg/ml DHPS at 25° C. in the volumes provided above. The sample solution was then mixed and incubated for 10 minutes. Next, 500 nM solutions of the inhibitors and enough DMSO to provide a final DMSO concentration of 5% of the total assay volume were added. The solution was mixed and incubated for an additional 6 minutes.
In DHPR samples, 5 μl of the diluted DHPR enzyme were added. The sample was mixed for 20 seconds and then the reaction was run for 10 minutes. […] Reading of the samples was continued until 300 seconds. […] The substrate was kept at a level at least 10 times the Km. The final concentration of L-ASA was about 1 mM.

[4] = system: inosine-5′-monophosphate dehydrogenase (IMPDH); experiment: IMPDH kinetic assay, spectrophotometric reduction of NAD+ at 340 nm; type: biochemical; settings: for IC50: Examples 36/37, FIG. 16/17
Description: Solutions of 100 μl of the inhibitors in DMSO were prepared to provide a final DMSO concentration of 5% of the total assay volume. These solutions were incubated for 6 minutes at 37° C. in a 992 μl of a solution containing 0.1 M Tris-HCl, pH 8.0, 0.25 M KCl, 0.3% glycerol, 30 μM NAD+, and 600 μM IMP (inosine monophosphate). The reaction was then initiated with 8 μμl of IMPDH (0.75 μg/ml). […] Reading of the samples was continued until 300 seconds. Cuvette #1 contained the control reaction (no inhibitor), and cuvette #2 contained the positive control reaction in which Cibacron Blue was substituted for inhibitor. The substrate was kept at a level at least 10 times the Km.

[5] = target: 1-deoxy-D-xylulose-5-phosphate reductase (DOXPR) (Escherichia coli, UniProt P45568); experiment: DOXPR kinetic assay, spectrophotometric oxidation of NADPH at 340 nm; type: biochemical; settings: Examples 36/37, FIG. 16/17
Sequence of 1-deoxy-D-xylulose-5-phosphate reductase (DOXPR) (P45568 whole entry): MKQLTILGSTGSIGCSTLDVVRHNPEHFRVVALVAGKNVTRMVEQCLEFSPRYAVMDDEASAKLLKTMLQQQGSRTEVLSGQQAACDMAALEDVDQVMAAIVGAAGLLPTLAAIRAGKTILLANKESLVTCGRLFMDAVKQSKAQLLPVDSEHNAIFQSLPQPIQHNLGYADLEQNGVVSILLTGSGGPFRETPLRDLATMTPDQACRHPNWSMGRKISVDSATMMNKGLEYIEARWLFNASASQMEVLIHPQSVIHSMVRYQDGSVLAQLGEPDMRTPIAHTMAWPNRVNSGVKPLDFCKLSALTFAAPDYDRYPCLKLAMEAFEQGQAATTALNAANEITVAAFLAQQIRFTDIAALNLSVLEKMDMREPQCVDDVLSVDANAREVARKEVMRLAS
Description: DOXPR was diluted in 10 mM HEPES at a pH of 7.4.
Solutions of the inhibitors in DMSO were prepared to provide a final DMSO concentration of 5% of the total assay volume. […] The oxidation reaction was then initiated with 10 μl of DOXP reductoisomerase (10 μg/ml). […] Reading of the samples was continued until 300 seconds. […] The substrate was kept at a level at least 10 times the Km.

[6] = target: dihydrofolate reductase (DHFR) (UniProt P00374); experiment: DHFR kinetic assay, spectrophotometric oxidation of NADH at 340 nm; type: biochemical
Sequence of dihydrofolate reductase (DHFR) (P00374 whole entry): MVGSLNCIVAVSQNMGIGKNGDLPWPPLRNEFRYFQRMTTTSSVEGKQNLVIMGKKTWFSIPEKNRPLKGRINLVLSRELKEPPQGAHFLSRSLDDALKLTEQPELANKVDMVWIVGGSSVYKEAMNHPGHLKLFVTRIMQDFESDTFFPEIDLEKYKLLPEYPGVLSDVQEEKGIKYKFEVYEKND
Description: H2 folate was dissolved in DMSO to about 10 mM and then diluted with water to a concentration of 0.1 mM.
Solutions of 100 μl of the inhibitors in DMSO were prepared to provide a final DMSO concentration of 5% of the total assay volume. […] The oxidation reaction was then initiated with 8 μl of DHFR (0.047 mg/ml). […] Reading of the samples was continued until 300 seconds. Cuvette #1 always contained the control reaction (no inhibitor), and cuvette #2 always contained the positive control reaction in which Cibacron Blue at 3 μM was substituted for inhibitor to yield […] inhibition. The substrate was kept at a level at least 10 times the Km.

[7] = target: isopropylmalate dehydrogenase (IPMDH) (Escherichia coli, UniProt P30125); experiment: IPMDH kinetic assay, spectrophotometric reduction of NAD at 340 nm; type: biochemical, E. coli; settings: Examples 36/37, FIG. 16/17
Sequence of isopropylmalate dehydrogenase (IPMDH) (P30125 whole entry): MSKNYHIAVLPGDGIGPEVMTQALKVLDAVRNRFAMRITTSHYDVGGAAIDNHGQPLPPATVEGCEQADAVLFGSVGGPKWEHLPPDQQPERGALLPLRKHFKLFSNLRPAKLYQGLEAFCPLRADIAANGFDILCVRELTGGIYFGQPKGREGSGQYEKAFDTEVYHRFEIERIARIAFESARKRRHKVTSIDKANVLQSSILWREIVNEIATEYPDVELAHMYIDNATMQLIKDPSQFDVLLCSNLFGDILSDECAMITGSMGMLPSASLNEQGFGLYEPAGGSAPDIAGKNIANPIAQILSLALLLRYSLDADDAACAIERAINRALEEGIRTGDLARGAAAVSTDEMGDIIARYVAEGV
Description: Inhibitor was incubated for 5 minutes at 37° C. in a 990 μl of a solution containing 20 mM potassium phosphate, pH 7.6, 0.3 M potassium chloride, 0.2 mM manganese chloride, 109 μM NAD, and 340 μM DL-threo-3-isopropylmalic acid (IPM). […] Reading of the samples was continued until 300 seconds. The final concentration of DMSO in the cuvette was 5% of the total assay volume. […] The substrate was kept at a level at least 10 times the Km.

[8] = target: T2, alcohol dehydrogenase (ADH) (Saccharomyces cerevisiae, UniProt P00330); experiment: ADH kinetic assay, spectrophotometric reduction of NAD+ at 340 nm; type: biochemical, Bakers Yeast; settings: Examples 36/37, FIG. 16/17
T2 construct: ADH from Bakers Yeast; from tissue; host or cells: bakers yeast
T2 sequence (P00330 1-348): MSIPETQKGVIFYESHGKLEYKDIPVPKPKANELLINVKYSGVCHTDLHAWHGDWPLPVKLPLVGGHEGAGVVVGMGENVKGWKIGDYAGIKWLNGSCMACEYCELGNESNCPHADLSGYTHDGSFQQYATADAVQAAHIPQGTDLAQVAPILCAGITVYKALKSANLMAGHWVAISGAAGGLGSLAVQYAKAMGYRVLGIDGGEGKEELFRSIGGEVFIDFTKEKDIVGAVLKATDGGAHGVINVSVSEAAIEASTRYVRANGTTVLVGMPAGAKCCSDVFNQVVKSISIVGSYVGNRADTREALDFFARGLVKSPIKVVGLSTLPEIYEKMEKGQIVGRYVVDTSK
Description: Solutions of 100 μl of the inhibitors in DMSO were prepared to provide a final DMSO concentration of 5% of the total assay volume. […] The reaction was then initiated with 10 μl of ADH from Bakers Yeast (3.3 μg/ml; 1:400 dilution of 1.0 mg/ml). […] Reading of the samples was continued until 300 seconds. […] The substrate was kept at a level at least 10 times the Km. The final concentration of pyruvate was about 2.5 mM.
Where only a simple read was desired, as in the case of NAD+concentration determination, 13 μl (10 M stock) of ethanol was used to drive the reaction, and 10 μl of pure enzyme (1 mg/ml) was used. NAD+was soluble at 2 mM, which allowed the concentration determination step to be skipped. In this situation, the procedure was as follows. All of the ingredients except for the enzyme were mixed together. The solution was mixed well and the absorbance at 340 nm read. The enzyme was added and read again at OD 340 after the absorbance stopped changing, generally 10 to 15 minutes after the enzyme was added.

[9] = target: Human Aldose Reductase (AR) (Homo sapiens, UniProt P15121); experiment: AR kinetic assay, spectrophotometric measurement of enzyme activity at 340 nm; type: biochemical
Description: (§1) Solutions of 100 μl of the inhibitors in DMSO were prepared to provide a final DMSO concentration of 5% of the total assay volume. […] The reaction was then initiated with 10 μl of Human Aldose Reductase (1:5 dilution of 0.55 mg/ml). […] Reading of the samples was continued until 300 seconds. The final DMSO concentration in the cuvette was 5%. […] The substrate was kept at a level at least 10 times the Km.

[10] = target: T3, lactate dehydrogenase (LDH) (Oryctolagus cuniculus, UniProt P13491); experiment: LDH kinetic assay, spectrophotometric oxidation of NADH at 340 nm; type: biochemical, Rabbit
T3 construct: LDH from Rabbit Muscle; from tissue; host or cells: rabbit muscle
Description: as §1, with “LDH from Rabbit Muscle (0.5 μ/ml; 1:2000” for “Human Aldose Reductase (1:5”, “1.0” for “0.55”, “seconds.” for “seconds. The final DMSO concentration in the cuvette was 5%.”

SMILES	IC50 [1] [nM]	IC50 ([2]; IC50 for GAPDH) [µM]	IC50 ([3]; IC50 for DHPR) [µM]	inhibition of IMPDH ([4]; Example 37, result in words)	IC50 ([5]; IC50 for DOXPR) [µM]	IC50 ([2]; read-out: IC50 for GAPDH) [µM]	IC50 ([3]; read-out: IC50 for DHPR) [µM]	IC50 [4] [µM]	IC50 ([4]; listed as Sa) [µM]	inhibition of DHFR ([6]; Example 37, result in words)	IC50 ([6]; Examples 36/37, FIG. 16/17; read-out: IC50 for DHFR) [µM]	IC50 [7] [µM]	IC50 [8]	IC50 ([9]; Examples 36/37, FIG. 16/17)	IC50 ([10]; Example 37, FIG. 17) [µM]	IC50 ([6]; read-out: IC50 for DHFR; Examples 36/37, FIG. 16/17) [µM]	IC50 ([10]; Examples 36/37, FIG. 16/17) [µM]	IC50 ([5]; read-out: IC50 for DOXPR) [µM]	inhibition of AR ([9]; Examples 36/37, result in words)
O=C1NC(=O)C(=Cc2ccc(-c3cccc(C(=O)O)c3)o2)S1 [Compound 5b, 3-[5-(2,4-dioxo-thiazolidin-5-ylidenemethyl)-furan-2-yl]-benzoic acid]	> 400000	> 400	> 400	No inhibition	> 400														
O=C1NC(=O)C(=Cc2ccc(-c3ccc(C(=O)O)cc3)o2)S1 [Compound 5a, 4-[5-(2,4-dioxo-thiazolidin-5-ylidenemethyl)-furan-2-yl]-benzoic acid]						> 200	> 200	58.8	> 200	No inhibiiton	> 75	> 200	116 µM and 140 µM	2.26 µM and 4.1 µM					
O=C1NC(=S)SC1=Cc1ccc(-c2ccc(O)c(C(=O)O)c2)o1 [Compound 7e, 2-hydroxy-5-[5-(4-oxo-2-thioxo-thiazolidin-5-ylidenemethyl)-furan-2-yl]-benzoic acid]	143		2.1		1.6								3.4 µM		0.34	4.3			
O=C1NC(=O)C(=Cc2ccc(-c3ccc(O)c(C(=O)O)c3)o2)S1 [Compound 5e, 5-[5-(2,4-dioxo-thiazolidin-5-ylidenemethyl)-furan-2-yl]-2-hydroxy-benzoic acid]						> 200	> 200	2.15		No inhibition		> 50	21 µM				46	> 100	No inhibition
